# Test results published in the supplement of paper PMC12494721.
# Where a name gives a salt, the structure may show the parent alone.
# What was measured:
# Conditions in all cases: incubation time: 27 h, anaerobic, 37 °C
# [1] = tested on: Clostridium sporogenes DSM 1664; test: fold change of Tryptamine concentration vs plate DMSO controls (fold change (ratio)); higher = more amine produced
# [2] = tested on: Ruminococcus gnavus DSM 108212; test: as above
# [3] = tested on: Ruminococcus gnavus DSM 108212; test: fold change of 2-Phenylethylamine concentration vs plate DMSO controls (fold change (ratio)); higher = more amine produced
# [4] = tested on: Clostridium sporogenes DSM 1664; test: growth (OD595) fold change vs plate DMSO controls (fold change (ratio)); higher = more growth
# [5] = tested on: Ruminococcus gnavus DSM 108212; test: as above
# [6] = tested on: Escherichia coli IAI1; test: fold change of Cadaverine concentration vs plate DMSO controls (fold change (ratio)); higher = more amine produced
# [7] = tested on: Escherichia coli IAI1; test: growth (OD595) fold change vs plate DMSO controls (fold change (ratio)); higher = more growth
# [8] = tested on: Escherichia coli IAI1; test: fold change of Putrescine concentration vs plate DMSO controls (fold change (ratio)); higher = more amine produced
smiles,measurement,setting,value
CS(=O)(=O)c1ccc([C@@H](O)[C@@H](CF)NC(=O)C(Cl)Cl)cc1 [Florfenicol],fold change of Tryptamine concentration,[1]; 0.6125 µM,0.86
same,fold change of Tryptamine concentration,[1]; 1.25 µM,0.636
same,fold change of Tryptamine concentration,[1]; 2.5 µM,0.0416
same,fold change of Tryptamine concentration,[1]; 5 µM,0.0331
same,fold change of Tryptamine concentration,[1]; 10 µM,0.0302
same,fold change of Tryptamine concentration,[1]; 20 µM,0.0273
same,fold change of Tryptamine concentration,[2]; 0.6125 µM,0.662
same,fold change of Tryptamine concentration,[2]; 1.25 µM,0.537
same,fold change of Tryptamine concentration,[2]; 2.5 µM,0.516
same,fold change of Tryptamine concentration,[2]; 5 µM,0.393
same,fold change of Tryptamine concentration,[2]; 10 µM,0.261
same,fold change of Tryptamine concentration,[2]; 20 µM,0.241
same,fold change of 2-Phenylethylamine concentration,[3]; 0.6125 µM,0.644
same,fold change of 2-Phenylethylamine concentration,[3]; 1.25 µM,0.572
same,fold change of 2-Phenylethylamine concentration,[3]; 2.5 µM,0.509
same,fold change of 2-Phenylethylamine concentration,[3]; 5 µM,0.311
same,fold change of 2-Phenylethylamine concentration,[3]; 10 µM,0.203
same,fold change of 2-Phenylethylamine concentration,[3]; 20 µM,0.199
same,growth,[4]; 0.6125 µM,1.14
same,growth,[4]; 1.25 µM,0.685
same,growth,[4]; 2.5 µM,0.0218
same,growth,[4]; 5 µM,-0.0331
same,growth,[4]; 10 µM,-0.0315
same,growth,[4]; 20 µM,-0.0323
same,growth,[5]; 0.6125 µM,0.826
same,growth,[5]; 1.25 µM,0.757
same,growth,[5]; 2.5 µM,0.681
same,growth,[5]; 5 µM,0.386
same,growth,[5]; 10 µM,0.252
same,growth,[5]; 20 µM,0.0641
CO[C@@]1(NC(=O)C2SC(=C(C(N)=O)C(=O)O)S2)C(=O)N2C(C(=O)O)=C(CSc3nnnn3C)CS[C@@H]21 (stereo partly drawn) [Cefotetan],fold change of Cadaverine concentration,[6]; 0.6125 µM,1.08
same,fold change of Cadaverine concentration,[6]; 1.25 µM,1.22
same,fold change of Cadaverine concentration,[6]; 2.5 µM,1.18
same,fold change of Cadaverine concentration,[6]; 5 µM,2.07
same,fold change of Cadaverine concentration,[6]; 10 µM,2.24
same,fold change of Cadaverine concentration,[6]; 20 µM,2.29
same,growth,[7]; 0.6125 µM,0.849
same,growth,[7]; 1.25 µM,0.812
same,growth,[7]; 2.5 µM,0.978
same,growth,[7]; 5 µM,0.728
same,growth,[7]; 10 µM,0.123
same,growth,[7]; 20 µM,0.0366
same,fold change of Putrescine concentration,[8]; 0.6125 µM,0.781
same,fold change of Putrescine concentration,[8]; 1.25 µM,1.01
same,fold change of Putrescine concentration,[8]; 2.5 µM,0.823
same,fold change of Putrescine concentration,[8]; 5 µM,2.04
same,fold change of Putrescine concentration,[8]; 10 µM,2.6
same,fold change of Putrescine concentration,[8]; 20 µM,1.48
CN(C)CCn1nnnc1SCC1=C(C(=O)O)N2C(=O)[C@@H](NC(=O)Cc3csc(N)n3)[C@H]2SC1 [Cefotiam hydrochloride],fold change of Cadaverine concentration,[6]; 0.6125 µM,1.29
same,fold change of Cadaverine concentration,[6]; 1.25 µM,1.27
same,fold change of Cadaverine concentration,[6]; 2.5 µM,1.71
same,fold change of Cadaverine concentration,[6]; 5 µM,1.34
same,fold change of Cadaverine concentration,[6]; 10 µM,0.568
same,fold change of Cadaverine concentration,[6]; 20 µM,0.594
same,fold change of Tryptamine concentration,[1]; 0.6125 µM,1.02
same,fold change of Tryptamine concentration,[1]; 1.25 µM,0.833
same,fold change of Tryptamine concentration,[1]; 2.5 µM,0.0314
same,fold change of Tryptamine concentration,[1]; 5 µM,0.0234
same,fold change of Tryptamine concentration,[1]; 10 µM,0.025
same,fold change of Tryptamine concentration,[1]; 20 µM,0.0225
same,growth,[7]; 0.6125 µM,0.969
same,growth,[7]; 1.25 µM,1.03
same,growth,[7]; 2.5 µM,0.906
same,growth,[7]; 5 µM,-0.0152
same,growth,[7]; 10 µM,-0.055
same,growth,[7]; 20 µM,-0.0576
same,growth,[4]; 0.6125 µM,0.8
same,growth,[4]; 1.25 µM,0.293
same,growth,[4]; 2.5 µM,0.273
same,growth,[4]; 5 µM,-0.0402
same,growth,[4]; 10 µM,-0.0341
same,growth,[4]; 20 µM,-0.0328
same,fold change of Putrescine concentration,[8]; 0.6125 µM,0.767
same,fold change of Putrescine concentration,[8]; 1.25 µM,0.89
same,fold change of Putrescine concentration,[8]; 2.5 µM,2.91
same,fold change of Putrescine concentration,[8]; 5 µM,0.839
same,fold change of Putrescine concentration,[8]; 10 µM,0.15
same,fold change of Putrescine concentration,[8]; 20 µM,0.148
Cc1cc(O)c(C(=O)N[C@@H](C(=O)N[C@@H]2C(=O)N3C(C(=O)O)=C(CSc4nnnn4C)CS[C@H]23)c2ccc(O)cc2)cn1 [Cefpiramide],fold change of Cadaverine concentration,[6]; 0.6125 µM,1.44
same,fold change of Cadaverine concentration,[6]; 1.25 µM,1.57
same,fold change of Cadaverine concentration,[6]; 2.5 µM,1.97
same,fold change of Cadaverine concentration,[6]; 5 µM,2.19
same,fold change of Cadaverine concentration,[6]; 10 µM,2.26
same,fold change of Cadaverine concentration,[6]; 20 µM,2.23
same,fold change of Tryptamine concentration,[2]; 0.6125 µM,0.773
same,fold change of Tryptamine concentration,[2]; 1.25 µM,0.388
same,fold change of Tryptamine concentration,[2]; 2.5 µM,0.226
same,fold change of Tryptamine concentration,[2]; 5 µM,0.183
same,fold change of Tryptamine concentration,[2]; 10 µM,0.154
same,fold change of Tryptamine concentration,[2]; 20 µM,0.147
same,fold change of 2-Phenylethylamine concentration,[3]; 0.6125 µM,0.656
same,fold change of 2-Phenylethylamine concentration,[3]; 1.25 µM,0.288
same,fold change of 2-Phenylethylamine concentration,[3]; 2.5 µM,0.158
same,fold change of 2-Phenylethylamine concentration,[3]; 5 µM,0.132
same,fold change of 2-Phenylethylamine concentration,[3]; 10 µM,0.107
same,fold change of 2-Phenylethylamine concentration,[3]; 20 µM,0.131
same,growth,[7]; 0.6125 µM,0.836
same,growth,[7]; 1.25 µM,0.802
same,growth,[7]; 2.5 µM,0.44
same,growth,[7]; 5 µM,0.259
same,growth,[7]; 10 µM,0.00195
same,growth,[7]; 20 µM,-0.0159
same,growth,[5]; 0.6125 µM,1.28
same,growth,[5]; 1.25 µM,0.921
same,growth,[5]; 2.5 µM,0.902
same,growth,[5]; 5 µM,0.827
same,growth,[5]; 10 µM,0.698
same,growth,[5]; 20 µM,0.575
same,fold change of Putrescine concentration,[8]; 0.6125 µM,0.827
same,fold change of Putrescine concentration,[8]; 1.25 µM,1.34
same,fold change of Putrescine concentration,[8]; 2.5 µM,3.19
same,fold change of Putrescine concentration,[8]; 5 µM,2.27
same,fold change of Putrescine concentration,[8]; 10 µM,1.28
same,fold change of Putrescine concentration,[8]; 20 µM,0.966
CC1CCc2cc(F)cc3c(=O)c(C(=O)O)cn1c23 (stereo not drawn) [Flumequine],fold change of Tryptamine concentration,[1]; 0.6125 µM,1.03
same,fold change of Tryptamine concentration,[1]; 1.25 µM,1.06
same,fold change of Tryptamine concentration,[1]; 2.5 µM,1.11
same,fold change of Tryptamine concentration,[1]; 5 µM,0.996
same,fold change of Tryptamine concentration,[1]; 10 µM,0.569
same,fold change of Tryptamine concentration,[1]; 20 µM,0.0662
same,growth,[4]; 0.6125 µM,1.02
same,growth,[4]; 1.25 µM,1.04
same,growth,[4]; 2.5 µM,1
same,growth,[4]; 5 µM,0.948
same,growth,[4]; 10 µM,0.659
same,growth,[4]; 20 µM,0.202
COC(=O)N/N=C/c1c[n+]([O-])c2ccccc2[n+]1[O-] [Carbadox],fold change of Tryptamine concentration,[1]; 0.6125 µM,0.852
same,fold change of Tryptamine concentration,[1]; 1.25 µM,0.79
same,fold change of Tryptamine concentration,[1]; 2.5 µM,0.724
same,fold change of Tryptamine concentration,[1]; 5 µM,0.739
same,fold change of Tryptamine concentration,[1]; 10 µM,0.774
same,fold change of Tryptamine concentration,[1]; 20 µM,0.343
same,growth,[4]; 0.6125 µM,1.09
same,growth,[4]; 1.25 µM,0.89
same,growth,[4]; 2.5 µM,0.999
same,growth,[4]; 5 µM,1.04
same,growth,[4]; 10 µM,0.742
same,growth,[4]; 20 µM,0.333
